For one assay, the target named is human MEK1 (Homo sapiens, UniProt Q02750). The assay can be described thus: MEK-1 Enzyme Assay (LANCE-HTRF). It is filed as biochemical. To be noted: 100 nM MEK1, 15 μM ATP, 300 nM ERK2, two hours. As for the experimental part:
The activity of the compounds of the present invention may be determined by the following procedure: Inhibition of human MEK1 kinase activity was monitored with a homogenous, fluorescence based assay. The assay uses time resolved fluorescence resonance energy transfer to probe for phosphorylation of […] by MEK1. The assay is carried out in low volume 96 well microtiterplates. In a total volume of 15 μl, compounds are incubated with 100 nM MEK1, 15 μM ATP, 300 nM ERK2 employing a buffer containing 20 mM TRIS/HCl, 10 mM MgCl2, 100 μM NaVO4, 1 mM DTT, and 0.005% Tween 20 (pH 7.4). After two hours, 5 nM Europium-anti-PY20 (Perkin Elmer) and 50 nM Anti-GST-Allophycocyanin (CisBio) in buffer containing 50 mM EDTA and 0.05% BSA are added and the reaction incubated for one hour in the dark. Time-resolved fluorescence is measured using a LJL-Analyst (Molecular Devices) with an excitation wavelength of 340 nm and an emission wavelength of 665 nm. The final concentration of DMSO is 2%.
On the technique in general: TR-FRET usually uses a lanthanide donor and a delayed reading to cut background.

In the next assay the test system is Murine colon C26 cells. In words: Tumor Cell Proliferation Assay (ATP Lite), C26. It is filed as cell-based. To be noted: Mus musculus, 96 h, 4 days. As for the experimental part: (§1) Murine colon C26, human melanoma A375 and human pancreatic MiaPaCa-2 cells were plated in 96 well Corning white plates (1500 cells/well for C26, and 2000 cells/well for A375, and MiaPaCa-2) and cultured overnight at 37° C. in 5% CO2. Inhibitors were serially diluted in 100 DMSO and subsequently added to cells to reach a final concentration of 0.25% DMSO. The cells were incubated for 4 days in the presence of test compounds in cell growth media (DMEM with 10% fetal bovine serum, 2 mM glutamine for C26, and MiaPaCa-2, and RPMI with 10% fetal bovine serum, 2 mM glutamine for A375). Cell proliferation was quantitated using the ATP lite cell proliferation kit (Packard). Columns 2-5 show the concentration of compounds required to induce 50% cell death (IC50 in μM) of […].

Assay [1] relates to human melanoma A375 cells. In words: Tumor Cell Proliferation Assay (ATP Lite), A375. It is filed as cell-based. To be noted: A-375, 96 h, 4 days. The protocol:
as §1

Assay [2] deals with human pancreatic MiaPaCa-2 cells. The assay can be described thus: Tumor Cell Proliferation Assay (ATP Lite), MiaPaCa-2. It is filed as cell-based. To be noted: MIA PaCa-2, 96 h, 4 days. The protocol: as §1
In the next assay the test system is Colo-205 xenograft. The assay can be described thus: In vivo efficacy, Colo-205 mouse xenograft model. To be noted: male nude mice. As for the experimental part: (§2) Male nude (nu/nu) mice were injected subcutaneously above the right foreleg with certain number of cells of human tumor cell lines such as Colo-205, A375 or MiaPaCa2. Tumors were measured with calipers one week after cells were implanted. Tumor length (l) and width (w) were measured and tumor volume was calculated with the equation l*w^2/2. […] Tumor volume and body weight were measured for each animal on Days 0, 4, 6, 8, 10, 12 and 14. Tumor volume and percent body weight were analyzed via Two-Way Repeated Measures Analysis of Variance (RM-ANOVA) followed by Fisher's post-hoc multiple pair-wise comparisons of treatment group means.

The next assay has as its system MiaPaCa2 xenograft. In words: In vivo efficacy, MiaPaCa2 mouse xenograft model. To be noted: male nude mice. The protocol: as §2

The source of these data is patent publication US8404725B2, “Phenylamino isonicotinamide compounds” (Merck Patent GmbH, priority 2008, dated 2013).

As usually defined, the IC50 is the midpoint of a concentration-inhibition curve. Low values mean greater potency in that assay, high ones weaker potency in that assay.

Chain of human MEK1 (Q02750 whole entry): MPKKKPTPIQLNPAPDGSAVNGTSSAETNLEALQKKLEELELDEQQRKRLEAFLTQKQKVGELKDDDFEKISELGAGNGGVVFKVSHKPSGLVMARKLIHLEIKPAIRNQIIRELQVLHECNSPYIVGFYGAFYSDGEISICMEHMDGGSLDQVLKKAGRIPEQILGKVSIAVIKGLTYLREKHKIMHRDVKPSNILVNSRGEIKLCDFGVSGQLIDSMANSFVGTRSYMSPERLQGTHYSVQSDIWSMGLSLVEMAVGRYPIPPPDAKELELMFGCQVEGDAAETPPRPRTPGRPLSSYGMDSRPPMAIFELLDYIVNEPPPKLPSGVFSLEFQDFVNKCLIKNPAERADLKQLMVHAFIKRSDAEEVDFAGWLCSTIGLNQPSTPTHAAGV

In the case of `O=C(N[C@@H]1CCC[C@@H](O)[C@H]1O)c1ccncc1Nc1ccc(Br)cc1F` (racemic) [(5), 3-(4-Bromo-2-fluoro-phenylamino)-N-((1RS,2SR,3RS)-2,3-dihydroxy-cyclohexyl)-isonicotinamide], the IC50 against human MEK1 worked out at 98 nM; in the assay on Murine colon C26 cells, 73 nM; in assay [1], 7.5 nM; in assay [2], 42.5 nM.
The like results for `O=C(N[C@H]1CCC[C@H](O)[C@@H]1O)c1ccncc1Nc1ccc(I)cc1F` (racemic) [(3), N-[(1SR,2RS,3SR)-2,3-dihydroxycyclohexyl]-3-[(2-fluoro-4-iodophenyl)amino]isonicotinamide] were, in that order, 94.8 nM, 16 nM, 1.4 nM and 7.3 nM.
The like results for `O=C(N[C@@H]1CCC[C@@H](O)[C@H]1O)c1ccncc1Nc1ccccc1F` [(10), N-((1R,2S,3R)-2,3-Dihydroxy-cyclohexyl)-3-(2-fluoro-phenylamino)-isonicotinamide] were, in that order, 189 nM, 150 nM, 21.5 nM and 74 nM.
The like results for `O=C(N[C@H]1CCC[C@H](O)[C@@H]1O)c1ccncc1Nc1ccc(I)cc1F` [(7), N-((1S,2R,3S)-2,3-dihydroxycyclohexyl)-3-(2-fluoro-4-iodophenylamino)isonicotinamide] were, in that order, 2670 nM, 5400 nM, 274 nM and 2120 nM.
With `O=C(N[C@@H]1CCC[C@@H](O)[C@H]1O)c1c(F)cncc1Nc1ccc(I)cc1F` (racemic) [(2)], the IC50 was determined as 74 nM on human MEK1, 5 nM in the assay on Murine colon C26 cells, 1 nM in assay [1] and 4.5 nM in assay [2].
Regarding `O=C(N[C@@H]1CCC[C@@H](O)[C@H]1O)c1ccncc1Nc1ccc(I)cc1F` [Compound (8), N-[(1R,2S,3R)-2,3-dihydroxycyclohexyl]-3-[(2-fluoro-4-iodophenyl)amino]isonicotinamide], the IC50 turned out to be 133 nM against human MEK1, 4.7 nM in the assay with Murine colon C26 cells, 1.6 nM in assay [1] and 2.7 nM in assay [2]. For the same compound, in the assay on Colo-205 xenograft (50 μg/kg*day, oral route), the “tumor growth inhibition (TGI)” value worked out at 100.69%. Moreover, the tumor growth inhibition in the assay with Colo-205 xenograft (150 μg/kg/day) came to 115.33%. In addition, the TGI in the assay with MiaPaCa2 xenograft (33 μg/kg/day) was determined as 100.97%; in the assay on MiaPaCa2 xenograft (50 μg/kg/day) it was 110.74%.
As for `O=C(N[C@@H]1CCC[C@@H](O)[C@H]1O)c1cc(Cl)ncc1Nc1ccc(I)cc1F` (racemic) [(1), 2-Chloro-N-((1RS,2SR,3RS)-2,3-dihydroxy-cyclohexyl)-5-(2-fluoro-4-iodo-phenylamino)-sonicotinamide], the IC50 at human MEK1 is 34.5 nM; in the assay on Murine colon C26 cells, 2 nM; in assay [1], 2 nM; in assay [2] it was 2 nM.
Consider `N[C@@H]1CCC[C@@H](OC(=O)c2c(F)cncc2Nc2ccc(I)cc2F)[C@H]1O` (racemic) [(4), 3-Fluoro-5-(2-fluoro-4-iodo-phenylamino)-isonicotinic acid (1RS,2SR,3RS)-3-amino-2-hydroxy-cyclohexyl ester], for which the IC50 at human MEK1 stood at 160 nM; in the assay on Murine colon C26 cells it was 20 nM; in assay [1], 85.5 nM; in assay [2] it was 49 nM.
The like results for `O=C(N[C@@H]1CCC[C@@H](O)[C@H]1O)c1ccncc1Nc1ccc(Br)cc1Cl` (racemic) [(6), 3-(4-Bromo-2-chloro-phenylamino)-N-((1RS,2SR,3RS)-2,3-dihydroxy-cyclohexyl)-isonicotinamide] were, in that order, 38 nM, 113 nM, 16.8 nM and 75.3 nM.
For the compound `O=C(N[C@@H]1CCC[C@@H](O)[C@H]1O)c1ccncc1Nc1ccc(Br)cc1F` [(9), 3-(4-bromo-2-fluorophenylamino)-N-((1R,2S,3R)-2,3-dihydroxycyclohexyl)isonicotinamide], the tumor growth inhibition in the assay with Colo-205 xenograft (daily 1.5 mg/kg, oral route) was 98.5%.
